In ChEMBL document CHEMBL1201862, “PubChem BioAssay data set” (2004):
Activity calls are given as the source filed them.

Columns and labels:
[1] = molecular target: T1, Heat shock factor protein 1 (Mus musculus, UniProt P38532); experiment: enhancement of HSF1-driven luciferase signal – cell-based, NIH3T3, luminescence, dose retest, confirmation (AID 435004); type: functional;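 further: stress induced by proteasome inhibitor MG132 added 30 min after compound; luciferase reporter driven by HSF1 response element in NIH3T3 cells; actives raise luminescence as potentiators of the MG132 stress response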
T1 sequence (P38532 whole entry): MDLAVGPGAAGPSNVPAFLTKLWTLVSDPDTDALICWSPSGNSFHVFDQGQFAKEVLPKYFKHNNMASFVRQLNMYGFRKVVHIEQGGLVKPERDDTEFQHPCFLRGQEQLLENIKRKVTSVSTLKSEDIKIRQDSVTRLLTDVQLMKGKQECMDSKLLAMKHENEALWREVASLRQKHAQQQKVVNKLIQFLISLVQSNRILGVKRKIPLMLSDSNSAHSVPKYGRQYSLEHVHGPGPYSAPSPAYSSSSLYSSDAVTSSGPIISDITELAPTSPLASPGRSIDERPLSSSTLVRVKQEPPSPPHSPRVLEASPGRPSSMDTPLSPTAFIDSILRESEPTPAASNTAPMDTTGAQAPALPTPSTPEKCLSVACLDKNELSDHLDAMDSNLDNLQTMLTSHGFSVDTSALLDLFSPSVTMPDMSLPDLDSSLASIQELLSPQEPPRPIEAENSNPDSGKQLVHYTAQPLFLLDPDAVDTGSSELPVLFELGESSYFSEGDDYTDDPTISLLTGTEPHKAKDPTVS

[2] = molecular target: T2, Microphthalmia-associated transcription factor (Homo sapiens, UniProt O75030); experiment: reducers of TRPM1 reporter luminescence, concentration series – cell-based, SK-MEL-5, cherry-picked, set 3, MITF inhibitor project, dose response (AID 493073); type: functional;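 further: SK-MEL-5 melanoma cells with luciferase driven by the MITF target TRPM1 promoter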
T2 sequence (O75030 whole entry): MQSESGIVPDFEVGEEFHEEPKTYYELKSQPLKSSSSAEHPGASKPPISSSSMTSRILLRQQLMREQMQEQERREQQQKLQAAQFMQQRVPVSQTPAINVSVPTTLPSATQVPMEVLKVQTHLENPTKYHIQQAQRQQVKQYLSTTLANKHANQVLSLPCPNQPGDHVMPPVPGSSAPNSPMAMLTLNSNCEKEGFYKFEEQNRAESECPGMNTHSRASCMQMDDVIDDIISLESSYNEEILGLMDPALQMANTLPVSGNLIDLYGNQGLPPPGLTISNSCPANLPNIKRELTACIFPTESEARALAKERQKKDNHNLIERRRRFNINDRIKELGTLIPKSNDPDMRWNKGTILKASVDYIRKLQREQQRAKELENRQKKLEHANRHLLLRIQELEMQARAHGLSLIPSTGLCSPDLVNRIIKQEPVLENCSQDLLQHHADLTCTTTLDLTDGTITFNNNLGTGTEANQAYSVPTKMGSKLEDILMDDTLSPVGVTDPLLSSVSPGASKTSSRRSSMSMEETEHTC

[3] = molecular target: T3, Protein RecA (Mycobacterium tuberculosis, UniProt P9WHJ3); experiment: Fluorescence Cell-Free Homogeneous Dose Retest to Identify Inhibitors of RecA-Intein Splicing Activity. [Related pubchem assays (depositor defined):AID2097, AID2223, AID489010, AID492950]; type: functional
T3 sequence (P9WHJ3 whole entry): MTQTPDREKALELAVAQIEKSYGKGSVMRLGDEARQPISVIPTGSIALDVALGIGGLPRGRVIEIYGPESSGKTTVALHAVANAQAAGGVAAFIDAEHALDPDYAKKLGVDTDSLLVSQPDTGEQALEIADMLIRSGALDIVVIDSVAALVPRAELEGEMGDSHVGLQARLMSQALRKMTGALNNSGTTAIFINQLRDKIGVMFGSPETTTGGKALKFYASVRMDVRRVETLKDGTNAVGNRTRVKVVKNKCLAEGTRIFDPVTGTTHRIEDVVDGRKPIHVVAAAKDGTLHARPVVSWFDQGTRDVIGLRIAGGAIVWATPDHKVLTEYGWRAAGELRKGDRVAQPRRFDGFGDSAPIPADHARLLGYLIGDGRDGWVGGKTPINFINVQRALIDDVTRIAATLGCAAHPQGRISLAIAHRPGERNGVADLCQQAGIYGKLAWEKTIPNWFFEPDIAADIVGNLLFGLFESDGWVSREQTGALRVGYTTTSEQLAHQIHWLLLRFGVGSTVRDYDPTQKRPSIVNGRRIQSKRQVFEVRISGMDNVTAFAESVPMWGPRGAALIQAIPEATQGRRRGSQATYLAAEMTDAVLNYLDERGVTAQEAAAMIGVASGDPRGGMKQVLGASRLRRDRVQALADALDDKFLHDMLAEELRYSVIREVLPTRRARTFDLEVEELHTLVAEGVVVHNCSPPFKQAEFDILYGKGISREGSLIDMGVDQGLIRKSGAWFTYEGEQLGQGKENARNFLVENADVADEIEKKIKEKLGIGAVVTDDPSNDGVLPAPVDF

[4] = molecular target: T4, Replicative DNA helicase DnaB (Mycobacterium tuberculosis, UniProt P9WMR3); experiment: DnaB intein splicing inhibitors, dose response, biochemical, cell-free fluorescence (AID 449749); type: functional
T4 sequence (P9WMR3 whole entry): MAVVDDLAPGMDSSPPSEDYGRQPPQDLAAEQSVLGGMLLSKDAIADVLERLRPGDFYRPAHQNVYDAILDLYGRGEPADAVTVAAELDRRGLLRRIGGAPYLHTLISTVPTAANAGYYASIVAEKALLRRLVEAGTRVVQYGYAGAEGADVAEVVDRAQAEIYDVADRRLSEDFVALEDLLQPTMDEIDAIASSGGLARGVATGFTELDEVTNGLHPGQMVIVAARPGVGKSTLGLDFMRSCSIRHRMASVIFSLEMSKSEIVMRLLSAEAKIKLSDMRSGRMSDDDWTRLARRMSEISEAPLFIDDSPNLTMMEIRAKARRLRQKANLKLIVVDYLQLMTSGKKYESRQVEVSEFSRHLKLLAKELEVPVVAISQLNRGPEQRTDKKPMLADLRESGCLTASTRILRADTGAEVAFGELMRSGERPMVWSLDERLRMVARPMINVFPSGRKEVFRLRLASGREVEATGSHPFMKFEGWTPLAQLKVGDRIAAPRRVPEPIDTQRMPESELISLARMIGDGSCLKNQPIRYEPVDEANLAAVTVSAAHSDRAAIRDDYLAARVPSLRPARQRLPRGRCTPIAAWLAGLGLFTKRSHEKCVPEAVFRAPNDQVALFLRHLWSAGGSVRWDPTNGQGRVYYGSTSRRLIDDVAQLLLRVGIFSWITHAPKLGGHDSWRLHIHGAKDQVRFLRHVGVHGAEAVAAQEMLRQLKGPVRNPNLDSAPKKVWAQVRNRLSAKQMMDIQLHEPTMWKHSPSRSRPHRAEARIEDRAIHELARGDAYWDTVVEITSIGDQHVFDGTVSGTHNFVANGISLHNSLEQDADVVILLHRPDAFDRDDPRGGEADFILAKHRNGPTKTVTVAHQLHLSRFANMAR

[5] = Luminescence Cell-Based Dose Retest to Confirm Inhibitors of Cancer Stem Cells. [Related pubchem assays (depositor defined):AID2717, AID2721]; type: functional; conditions: Homo sapiens
[6] = molecular target: T5, High affinity choline transporter 1 (Homo sapiens, UniProt Q9GZV3); experiment: human choline transporter blockers, potency – cell-based, 5-point CRC, membrane potential dye, dose response (AID 504840); type: functional
T5 sequence (Q9GZV3 whole entry): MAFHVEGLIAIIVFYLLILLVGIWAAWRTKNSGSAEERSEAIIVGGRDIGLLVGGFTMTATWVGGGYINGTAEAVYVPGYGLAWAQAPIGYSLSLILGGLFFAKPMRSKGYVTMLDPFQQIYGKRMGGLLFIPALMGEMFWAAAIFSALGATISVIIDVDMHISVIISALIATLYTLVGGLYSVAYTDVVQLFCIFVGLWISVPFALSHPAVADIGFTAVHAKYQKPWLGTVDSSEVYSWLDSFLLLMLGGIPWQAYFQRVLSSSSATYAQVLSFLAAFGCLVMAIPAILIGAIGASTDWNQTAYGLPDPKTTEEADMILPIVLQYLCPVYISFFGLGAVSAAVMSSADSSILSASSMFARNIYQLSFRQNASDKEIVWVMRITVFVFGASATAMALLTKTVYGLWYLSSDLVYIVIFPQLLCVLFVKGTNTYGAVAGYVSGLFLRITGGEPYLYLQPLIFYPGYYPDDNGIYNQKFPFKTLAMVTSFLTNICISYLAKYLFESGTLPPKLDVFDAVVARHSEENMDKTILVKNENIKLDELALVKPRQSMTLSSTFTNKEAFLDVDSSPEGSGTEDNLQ

[7] = microbe, parasite or virus in culture; type: functional; conditions: Mycobacterium tuberculosis
[8] = cells; type: functional
[9] = molecular target: T6, Polyadenylate-binding protein 1 (Homo sapiens, UniProt P11940); experiment: MLLE domain peptide-binding blockers, IC50 – biochemical, fluorescence polarization, FITC-PAM2 peptide, dose response (AID 602259); type: functional; conditions: read-out: IC50_Mean
[10] = DRD fibroblast viability loss – cell-based, non-viral oncogenic, luminescence, dose response (AID 1934); type: functional; conditions: Homo sapiens
[11] = tested on: BJ; experiment: cells; type: functional, cell-based; conditions: Homo sapiens
[12] = tested on: INS1; experiment: INS-1E survival protection against cytokine death – cell-based, luminescence, retest, dose response (AID 449756); type: functional; conditions: Rattus norvegicus;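 further: cell death triggered by IL-1 beta plus TNF-alpha plus IFN-gamma mixture; protective hits raise ATP signal compared with cytokine alone wells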
[13] = molecular target: T6, Polyadenylate-binding protein 1; experiment: MLLE binding blockers, Cy5 peptide tracer – biochemical, fluorescence polarization, Cy5-PAM2 peptide, secondary, miRNA deadenylation inhibitor project, dose response (AID 602260); type: functional; conditions: read-out: IC50_Mean
[14] = tested on: BJ; experiment: BJ-TERT-LT-ST fibroblast viability loss – cell-based, RAS-independent, luminescence, dose response (AID 1935); type: functional; conditions: Homo sapiens;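 further: BJ fibroblasts immortalized with TERT plus LT and ST oncogenes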
[15] = molecular target: Heat shock protein HSP 90-alpha (Homo sapiens, UniProt P07900); type: functional, organism-based
[16] = molecular target: Paired box protein Pax-8 (Homo sapiens, UniProt Q06710); experiment: PAX8 transcriptional activity inhibition in RMG-I – RMG-I cells, luciferase, cherry-pick, dose response (AID 687027); type: functional, cell-based;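 further: luciferase reporter driven by Pax8 target thyroperoxidase promoter measured by SteadyGlo luminescence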
[17] = cells; type: functional, cell-based
[18] = cells; type: functional, cell-based; remark: listed apart in the source
[19] = tested on: BJ; experiment: BJ-TERT fibroblast viability loss – cell-based, RAS-independent, luminescence, dose response (AID 1933); type: functional; conditions: Homo sapiens
[20] = molecular target: Voltage-dependent T-type calcium channel subunit alpha-1H (Homo sapiens, UniProt O95180); type: functional;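 further: channel activity triggered by adding a high calcium stimulation buffer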
[21] = blockade of melanocortin 4 receptor signaling – cell-based, plate reader, cherry pick, counter-screen for LGR2 antagonist project, dose response (AID 743444); type: functional;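 further: transfected HEK 293 cells stimulated with alpha-MSH peptide; potency of inhibitors of the alpha-MSH evoked signal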
[22] = blockers of bursicon-stimulated LGR2 cAMP reporter – cell-based, HEK293, CRE-luciferase reporter, cherry pick, set 2, dose response (AID 743343); type: functional;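 further: transfected cells were stimulated with diluted bursicon conditioned medium after compound addition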
[23] = molecular target: Cytochrome P450 2D6 (Homo sapiens, UniProt P10635);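 further: CYP2D6 member of a cytochrome P450 panel assay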
[24] = P. falciparum Dd2 growth inhibitors, dose response, SYBR Green, cherry-picked samples (AID 1159567); type: functional, cell-based

T6 sequence (P11940 whole entry, the tested form may be a part): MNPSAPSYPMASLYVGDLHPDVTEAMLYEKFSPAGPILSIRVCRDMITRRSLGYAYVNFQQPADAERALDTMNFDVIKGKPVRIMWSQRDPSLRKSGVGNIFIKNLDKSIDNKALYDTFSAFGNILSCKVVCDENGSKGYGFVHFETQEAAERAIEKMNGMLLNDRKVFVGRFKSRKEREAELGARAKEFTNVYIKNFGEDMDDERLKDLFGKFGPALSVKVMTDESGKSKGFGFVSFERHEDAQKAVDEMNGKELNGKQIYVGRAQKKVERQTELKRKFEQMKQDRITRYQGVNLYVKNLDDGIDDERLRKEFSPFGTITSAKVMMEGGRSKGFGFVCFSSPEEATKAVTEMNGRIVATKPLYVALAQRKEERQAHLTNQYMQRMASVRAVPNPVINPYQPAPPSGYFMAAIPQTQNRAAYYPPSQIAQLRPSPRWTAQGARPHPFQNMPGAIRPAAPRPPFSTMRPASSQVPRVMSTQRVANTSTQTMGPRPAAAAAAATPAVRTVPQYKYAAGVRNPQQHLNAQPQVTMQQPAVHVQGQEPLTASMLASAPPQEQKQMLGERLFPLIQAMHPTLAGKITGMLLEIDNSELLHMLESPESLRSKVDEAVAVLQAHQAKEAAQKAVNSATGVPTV
Paired box protein Pax-8, sequence (Q06710 whole entry): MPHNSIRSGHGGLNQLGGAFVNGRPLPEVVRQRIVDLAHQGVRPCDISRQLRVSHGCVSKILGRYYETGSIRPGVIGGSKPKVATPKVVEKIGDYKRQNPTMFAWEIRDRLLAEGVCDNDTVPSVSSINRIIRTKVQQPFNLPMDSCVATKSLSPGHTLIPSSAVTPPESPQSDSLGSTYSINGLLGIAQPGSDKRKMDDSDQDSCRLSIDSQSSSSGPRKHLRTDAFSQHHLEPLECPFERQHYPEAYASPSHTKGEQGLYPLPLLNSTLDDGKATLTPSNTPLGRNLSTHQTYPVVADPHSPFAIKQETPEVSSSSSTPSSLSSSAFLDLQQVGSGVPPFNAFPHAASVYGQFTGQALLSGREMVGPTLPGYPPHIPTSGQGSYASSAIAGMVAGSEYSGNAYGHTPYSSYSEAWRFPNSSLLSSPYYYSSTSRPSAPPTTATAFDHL
Voltage-dependent T-type calcium channel subunit alpha-1H, sequence (O95180 whole entry): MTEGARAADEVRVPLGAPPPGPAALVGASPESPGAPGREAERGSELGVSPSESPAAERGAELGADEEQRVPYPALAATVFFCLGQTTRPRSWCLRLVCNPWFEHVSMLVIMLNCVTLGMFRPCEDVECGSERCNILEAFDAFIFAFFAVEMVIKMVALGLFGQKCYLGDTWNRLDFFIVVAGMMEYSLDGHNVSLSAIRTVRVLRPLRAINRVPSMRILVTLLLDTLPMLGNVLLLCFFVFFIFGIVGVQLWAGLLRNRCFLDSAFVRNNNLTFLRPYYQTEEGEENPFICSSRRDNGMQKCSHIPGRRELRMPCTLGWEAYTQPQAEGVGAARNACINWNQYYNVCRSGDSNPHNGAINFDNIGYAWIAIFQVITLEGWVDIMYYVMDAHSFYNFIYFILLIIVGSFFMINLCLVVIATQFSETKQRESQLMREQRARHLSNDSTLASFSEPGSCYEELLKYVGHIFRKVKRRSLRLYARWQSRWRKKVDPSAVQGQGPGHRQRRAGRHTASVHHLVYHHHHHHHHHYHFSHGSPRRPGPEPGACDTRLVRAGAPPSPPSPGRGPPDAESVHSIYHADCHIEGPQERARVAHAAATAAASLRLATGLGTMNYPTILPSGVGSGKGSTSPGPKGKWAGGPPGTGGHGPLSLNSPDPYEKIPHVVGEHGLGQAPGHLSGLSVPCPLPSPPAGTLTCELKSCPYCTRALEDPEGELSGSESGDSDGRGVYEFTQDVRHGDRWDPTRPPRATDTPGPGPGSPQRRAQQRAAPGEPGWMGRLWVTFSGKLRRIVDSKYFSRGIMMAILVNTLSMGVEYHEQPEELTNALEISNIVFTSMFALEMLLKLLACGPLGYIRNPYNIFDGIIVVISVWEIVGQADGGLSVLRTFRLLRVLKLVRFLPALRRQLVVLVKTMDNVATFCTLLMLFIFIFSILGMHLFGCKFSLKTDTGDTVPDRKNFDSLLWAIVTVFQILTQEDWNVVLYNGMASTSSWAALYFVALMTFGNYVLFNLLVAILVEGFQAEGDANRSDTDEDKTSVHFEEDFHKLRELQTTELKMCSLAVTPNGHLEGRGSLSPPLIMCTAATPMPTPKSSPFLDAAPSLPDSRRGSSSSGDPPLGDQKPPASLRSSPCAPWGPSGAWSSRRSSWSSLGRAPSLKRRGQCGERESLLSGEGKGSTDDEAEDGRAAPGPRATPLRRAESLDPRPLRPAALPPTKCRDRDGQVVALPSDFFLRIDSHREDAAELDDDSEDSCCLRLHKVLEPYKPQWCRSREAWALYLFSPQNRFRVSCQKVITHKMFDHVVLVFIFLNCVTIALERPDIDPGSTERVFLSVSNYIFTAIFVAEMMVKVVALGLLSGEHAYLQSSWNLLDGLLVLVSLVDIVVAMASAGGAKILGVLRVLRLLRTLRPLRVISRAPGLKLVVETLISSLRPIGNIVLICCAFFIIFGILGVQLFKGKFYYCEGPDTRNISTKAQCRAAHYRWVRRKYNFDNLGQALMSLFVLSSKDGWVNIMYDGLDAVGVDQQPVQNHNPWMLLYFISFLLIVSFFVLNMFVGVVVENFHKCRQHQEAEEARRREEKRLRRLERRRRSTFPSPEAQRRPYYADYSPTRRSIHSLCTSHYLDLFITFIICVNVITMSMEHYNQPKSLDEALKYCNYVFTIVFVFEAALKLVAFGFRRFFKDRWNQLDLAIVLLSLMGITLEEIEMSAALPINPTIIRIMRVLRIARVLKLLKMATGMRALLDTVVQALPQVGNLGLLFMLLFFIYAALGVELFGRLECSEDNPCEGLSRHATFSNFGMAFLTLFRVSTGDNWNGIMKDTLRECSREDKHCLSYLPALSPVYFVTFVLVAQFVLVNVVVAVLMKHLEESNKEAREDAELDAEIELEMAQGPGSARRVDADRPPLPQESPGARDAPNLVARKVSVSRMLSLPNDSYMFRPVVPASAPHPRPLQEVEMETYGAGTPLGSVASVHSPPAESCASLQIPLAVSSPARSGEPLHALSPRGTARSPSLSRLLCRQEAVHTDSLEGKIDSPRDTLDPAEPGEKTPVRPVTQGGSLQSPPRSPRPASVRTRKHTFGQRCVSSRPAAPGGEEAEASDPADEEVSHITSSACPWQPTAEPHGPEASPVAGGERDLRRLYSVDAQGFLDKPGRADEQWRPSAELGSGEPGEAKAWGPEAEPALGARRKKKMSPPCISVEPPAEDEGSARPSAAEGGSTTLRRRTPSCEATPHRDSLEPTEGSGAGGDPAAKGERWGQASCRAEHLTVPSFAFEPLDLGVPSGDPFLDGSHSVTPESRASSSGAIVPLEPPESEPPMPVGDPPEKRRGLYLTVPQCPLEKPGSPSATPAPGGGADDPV
Cytochrome P450 2D6, sequence (P10635 whole entry): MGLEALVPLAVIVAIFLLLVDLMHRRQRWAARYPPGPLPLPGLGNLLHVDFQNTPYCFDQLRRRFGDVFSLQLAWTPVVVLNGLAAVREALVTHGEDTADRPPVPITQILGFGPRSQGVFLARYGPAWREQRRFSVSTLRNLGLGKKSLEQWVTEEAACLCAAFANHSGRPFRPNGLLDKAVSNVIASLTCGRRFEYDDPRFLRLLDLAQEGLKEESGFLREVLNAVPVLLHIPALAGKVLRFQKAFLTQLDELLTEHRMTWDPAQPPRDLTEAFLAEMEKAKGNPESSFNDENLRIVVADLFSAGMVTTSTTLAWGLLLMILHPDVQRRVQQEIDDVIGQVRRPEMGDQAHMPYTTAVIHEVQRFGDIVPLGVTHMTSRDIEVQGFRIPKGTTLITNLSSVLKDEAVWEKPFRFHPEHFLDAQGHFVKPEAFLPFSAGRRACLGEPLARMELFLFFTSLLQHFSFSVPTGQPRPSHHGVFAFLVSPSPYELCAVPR

Structure (SMILES): COC(=O)[C@@H]1C[C@]2(OC(=O)c3ccccc3)C=CC(=O)C[C@@H]2N1C(=O)OCc1ccccc1
- EC50 [1]: 18.5 µM (active)
- AC50 [2]: 14 µM (active)
- EC50 [3]: 10.5 µM (active)
- AC50 [4]: 8.72 µM (active)
- AC50 [5]: 6.36 µM (active)

Structure (SMILES): CN(Cc1ccccc1)c1nc(N)nc(Cl)c1C=O
- IC50 [6]: 15.1 µM (active)

Structure (SMILES): Cc1cc(OCc2cc(C(=O)N(C)CCc3cnn(C)c3)no2)cc(C)c1Cl
- CC50 [7]: > 40 µM (active)
- IC50 [8]: 29.6 µM (active)

Structure (SMILES): Oc1ccc2ccccc2c1N=Nc1nccs1
- IC50 [9]: > 66 µM (inactive)
- EC50 [10]: 10.3 µM (active)
- EC50 [11]: 2.03 µM (active)
- AC50 [12]: 0.666 µM (active)
- IC50 [13]: > 66 µM (inactive)
- CC50 [7]: 17.8 µM (active)
- EC50 [14]: 2.91 µM (active)
- AC50 [15]: 0.932 µM (active)
- AC50 [16]: 2.92 µM (active)
- EC50 [17]: 40.5 µM (active)
- EC50 [18]: 40.4 µM (active)
- EC50 [19]: 1.32 µM (active)

Structure (SMILES): CCc1nnc(NS(=O)(=O)c2ccc(NC(=O)c3cccc(Br)c3)cc2)s1
- IC50 [6]: 13.2 µM (active)

Structure (SMILES): Cc1cc(C)cc(-n2c(C)c3c(C)nnc(C)c3c2C)c1
- CC50 [7]: > 40 µM (active)

Structure (SMILES): CCCCCOc1ccc(N2C(=O)C3C4C=CC(C3C2=O)N(C)C4=O)cc1 (centres undefined)
- CC50 [7]: > 40 µM (active)

Structure (SMILES): CCc1ccccc1NC(=O)c1ccc(CN2CCC(Cc3ccccc3)CC2)cc1
- EC50 [20]: 0.111 µM (active)
- IC50 [6]: 13.8 µM (active)

Structure (SMILES): O=C(CCCc1ccccc1)Nc1cccc(C(=O)O)c1
- AC50 [21]: 1.91 µM (active)
- AC50 [2]: 4.42 µM (active)
- AC50 [22]: 2.04 µM (active)

Structure (SMILES): CC1CCN(S(=O)(=O)c2ccc3c(c2)N(CC(=O)NCCCN2C(C)CCCC2C)C(=O)CO3)CC1 (centres undefined)
- IC50 [6]: 13.5 µM (active)

Structure (SMILES): CCN(CC)S(=O)(=O)c1cccc(C(=O)N/N=C(\C)c2ccc(O)cc2O)c1
- AC50 [2]: 3.74 µM (active)
- EC50 [17]: > 350 µM (not active)
- EC50 [18]: 11.7 µM (active)

Structure (SMILES): Cc1ccc(NCC(=O)N/N=C\c2ccc([N+](=O)[O-])o2)cc1
- AC50 [23]: 15.8 µM (inconclusive)
- AC50 [2]: 19.1 µM (active)

Structure (SMILES): C/C(=N\NC1=NCCN1)c1ccccc1
- IC50 [6]: 12.9 µM (active)

Structure (SMILES): CO[C@@H]1CN(C)C(=O)c2cc(NC(=O)Nc3ccc(C(F)(F)F)cc3)ccc2OC[C@H](C)NC[C@@H]1C
- AC50 [24]: 5.85 µM (active)

Structure (SMILES): COc1ccc(-c2ccc3c(c2)[C@@H]2[C@@H](CCN2Cc2ccncc2)[C@@H](CO)N3)cc1
- AC50 [24]: 8.88 µM (active)

Structure (SMILES): N#C[C@@H]1[C@@H](c2ccccc2C2=CCCC2)[C@H](CO)N1C(=O)C1CC1
- AC50 [24]: > 36 µM (inactive)

Structure (SMILES): COc1ccc2c3c(n(C)c2c1)[C@H](CO)N(C(=O)Nc1ccc(F)cc1)CC31CCN(Cc2ccccn2)CC1
- AC50 [24]: 3.43 µM (active)
